Assay results: patent US20130317027A1, “COMPOUNDS AND THERAPEUTIC USES THEREOF” (Myrexis, Inc, priority 2010, published 2013)

System: MDA-MB-436 cells
Assay: Synergy between Nampt inhibitors and the PARP inhibitor olaparib in BRCA1-deficient cells
Format: cell-based
Settings: loss of BRCA1 function
Protocol: Experiments were conducted in HCT116 cells.
This was not fully unexpected, as PARP inhibitors are relatively benign to cells (like HCT116 cells) that have a functional homologous recombination (HR) system to repair double stranded DNA damage (Ashworth A. Journal of Clinical Oncology 26(22):3785-90 (2008)). In fact, the model (FIG. 1A) predicts that inhibiting an enzyme, such as PARP, that consumes NAD^+ would protect HR-proficient cells from Nampt inhibition. However, in cells that have lost the function of BRCA tumor suppressors, HR function is compromised, and these cells are killed by PARP inhibitors (Ashworth A. (2008) Journal of Clinical Oncology 26(22):3785-90). Thus, it was hypothesized that PARP inhibitors, while being antagonistic with Nampt inhibitors in most cells, would be synergistic in cells with BRCA mutations that render the cells HR-deficient (FIG. 1B). Indeed, in MDA-MB-436 cells, which have a loss of BRCA1 function, Nampt inhibitors (a known Nampt inhibitor, Exemplary Compound A and Exemplary Compound I, both Exemplary Compounds identified hereinafter) and the PARP inhibitor olaparib synergized in causing cell death. […] Of further significance to these findings, it is becoming clear that other routes of HR deficiency in oncogenesis (other than BRCA sequence mutation) could also lead to sensitivity to PARP inhibition plus Nampt inhibitor combination therapy. […]

## O=C(NCc1cccnc1)Nc1ccc(COc2ccccc2-c2ccccc2)cc1 [Exemplary Compound A]
  drug interaction with the PARP inhibitor olaparib in causing cell death: synergized
